US10669272B2, “Substituted naphthyridinone compounds useful as T cell activators” (BRISTOL-MYERS SQUIBB COMPANY, priority 2018, dated 2020)
Read-outs that look alike come from different tables or passages of the source.

Experiments:
human DGKζ = biological target: T1, human DGKζ (Homo sapiens, UniProt Q13574); assay: DGKζ LIPGLO assay (extruded liposome substrate), in vitro DGK inhibition; assay type: biochemical; conditions: liposome (LIPGLO) assay; read-out: DGKz LIPGLO IC50
T1 construct: TVMV protease cleavage site (C); Hexa-His (C); made in house; host or cells: Sf9 insect cells (baculovirus, Bac-to-Bac)

Human venous whole blood = assay: Human whole blood IFN-γ assay; assay type: cell-based; conditions: human whole blood, normalized to 3 μM reference compound with anti-CD3 plus anti-CD28 as 100% activation, read-out: INFg Whole Blood Normalized Agonist EC50;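 further: blood from healthy donors exposed to compound for 1 h before stimulation with anti-CD3 and anti-CD28 at 1 µg/mL each, IFN-γ quantified in supernatant by AlphaLISA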
Protocol: Human Whole Blood IFN-γ Assay
Human venous whole blood (22.5 μL per well), obtained from healthy donors, was pre-treated with compounds for one hour at 37° C. in a humidified 95% air/5% CO2 incubator. The blood was stimulated with 2.5 μL anti-human CD3 and anti-CD28 mAb at a final concentration of 1 μg/mL each for 24 hours at 37° C. IFN-γ in the supernatants was measured using AlphLISA kit (Cat # AL217).

naïve human CD8 T cells = assay: Human CD8 T cells IFN-γ assay; assay type: cell-based; conditions: normalized to 3 μM reference compound with anti-CD3 plus anti-CD28 as 100% activation, read-out: HuCD8 INFG Normalized EC50;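 further: Naïve human CD8 T cells stimulated with plate-bound anti-CD3 and soluble anti-CD28, IFN-γ in supernatant quantified by AlphaLISA and converted to pg/mL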
human DGKα = biological target: T2, human DGKα (Homo sapiens, UniProt P23743); assay: DGKα LIPGLO assay (extruded liposome substrate), in vitro DGK inhibition; assay type: biochemical; conditions: liposome (LIPGLO) assay; read-out: DGKa LIPGLO IC50
T2 construct: TVMV protease cleavage site (C); Hexa-His (C); made in house; host or cells: Sf9 insect cells (baculovirus, Bac-to-Bac)
T2 sequence (P23743 with tags, fused parts or gaps): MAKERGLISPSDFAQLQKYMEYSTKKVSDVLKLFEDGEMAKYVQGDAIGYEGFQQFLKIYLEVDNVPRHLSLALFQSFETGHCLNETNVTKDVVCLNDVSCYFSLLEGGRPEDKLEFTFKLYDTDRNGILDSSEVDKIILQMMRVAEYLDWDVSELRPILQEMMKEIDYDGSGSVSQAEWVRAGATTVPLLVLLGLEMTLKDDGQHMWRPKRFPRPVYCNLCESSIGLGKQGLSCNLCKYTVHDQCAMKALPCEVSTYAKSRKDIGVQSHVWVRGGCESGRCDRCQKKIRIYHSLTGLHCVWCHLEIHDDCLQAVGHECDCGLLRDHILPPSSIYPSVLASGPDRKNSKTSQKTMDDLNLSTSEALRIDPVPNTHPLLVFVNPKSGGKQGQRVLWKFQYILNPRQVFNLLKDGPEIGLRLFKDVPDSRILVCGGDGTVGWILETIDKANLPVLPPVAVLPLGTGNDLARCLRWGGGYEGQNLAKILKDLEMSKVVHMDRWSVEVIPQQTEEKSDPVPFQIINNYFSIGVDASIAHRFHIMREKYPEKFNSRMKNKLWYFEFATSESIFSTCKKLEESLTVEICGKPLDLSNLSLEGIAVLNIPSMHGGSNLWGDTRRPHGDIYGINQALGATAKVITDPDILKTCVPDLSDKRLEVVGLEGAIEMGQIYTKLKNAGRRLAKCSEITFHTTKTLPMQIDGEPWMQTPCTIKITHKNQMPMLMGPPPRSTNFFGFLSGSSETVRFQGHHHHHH

T1 sequence (Q13574 with tags, fused parts or gaps isoform Q13574-4): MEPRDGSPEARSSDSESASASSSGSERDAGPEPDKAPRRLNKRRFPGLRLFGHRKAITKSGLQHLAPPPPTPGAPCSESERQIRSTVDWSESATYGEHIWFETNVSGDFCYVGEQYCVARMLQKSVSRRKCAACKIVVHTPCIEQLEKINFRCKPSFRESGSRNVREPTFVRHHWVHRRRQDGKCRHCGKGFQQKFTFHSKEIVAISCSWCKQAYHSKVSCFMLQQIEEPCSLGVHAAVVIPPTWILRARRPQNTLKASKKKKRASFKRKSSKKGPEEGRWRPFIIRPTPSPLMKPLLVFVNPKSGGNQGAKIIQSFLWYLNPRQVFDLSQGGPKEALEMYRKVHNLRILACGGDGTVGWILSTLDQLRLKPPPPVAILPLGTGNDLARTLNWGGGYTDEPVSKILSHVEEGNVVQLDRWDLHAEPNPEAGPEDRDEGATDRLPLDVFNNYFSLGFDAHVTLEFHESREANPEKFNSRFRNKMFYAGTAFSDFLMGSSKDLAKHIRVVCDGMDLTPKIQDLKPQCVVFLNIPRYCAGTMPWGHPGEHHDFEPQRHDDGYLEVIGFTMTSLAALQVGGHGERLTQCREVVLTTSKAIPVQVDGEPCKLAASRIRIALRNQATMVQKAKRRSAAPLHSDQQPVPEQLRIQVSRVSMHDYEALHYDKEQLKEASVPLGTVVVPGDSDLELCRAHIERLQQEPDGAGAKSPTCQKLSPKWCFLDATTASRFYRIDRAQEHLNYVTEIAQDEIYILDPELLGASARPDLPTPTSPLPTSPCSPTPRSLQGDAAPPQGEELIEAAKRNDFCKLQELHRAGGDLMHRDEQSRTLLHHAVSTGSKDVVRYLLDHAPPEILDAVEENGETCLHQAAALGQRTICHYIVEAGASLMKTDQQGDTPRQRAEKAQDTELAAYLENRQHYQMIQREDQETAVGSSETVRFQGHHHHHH

Row | SMILES | IC50 (human DGKζ) [nM] | EC50 (Human venous whole blood) [nM] | EC50 (naïve human CD8 T cells; Homo sapiens, T-cell, 20 h) [nM] | IC50 (human DGKα) [nM] | EC50 (Human venous whole blood; Homo sapiens, 24 h) [nM] | EC50 (naïve human CD8 T cells) [nM]
1 | Cc1ccc(C(c2ccc(C#N)cc2)N2C[C@H](C)N(c3cc(=O)n(C)c4ccc(C#N)nc34)C[C@H]2C)nc1 (single isomer, unassigned) [Example 360] | 2500 | 310 | 130 | 570 | – | –
2 | Cc1ccnc(C(c2ccc(Cl)cc2)N2C[C@H](C)N(c3cc(=O)n(C)c4ccc(C#N)nc34)C[C@H]2C)c1 (single isomer, unassigned) [Example 362] | 340 | – | 230 | 230 | 720 | –
3 | Cc1ccc(C(c2ccc(Cl)cc2)N2C[C@H](C)N(c3cc(=O)n(C)c4ccc(C#N)nc34)C[C@H]2C)nc1 (single isomer, unassigned) [Example 363] | 400 | 130 | 99 | 150 | – | –
4 | C[C@@H]1CN(c2cc(=O)n(C)c3ccc(C#N)nc23)[C@@H](C)CN1C(c1ccc(OC(F)(F)F)cc1)c1cccc(F)n1 (single isomer, unassigned) [Example 367] | 2700 | – | 13 | 1300 | 460 | –
5 | C[C@@H]1CN(c2cc(=O)n(C)c3ccc(C#N)nc23)[C@@H](C)CN1C(c1ccc(OC(F)(F)F)cc1)c1cccc(F)n1 (single isomer, unassigned) [Example 368] | 2500 | 460 | – | 1700 | – | 10
6 | Cc1ccc(C(c2cccc(Cl)c2)N2C[C@H](C)N(c3cc(=O)n(C)c4ccc(C#N)nc34)C[C@H]2C)nc1 (single isomer, unassigned) [Example 369] | 1400 | – | – | 2800 | 480 | 150
7 | Cc1ccc(C(c2cccc(Cl)c2)N2C[C@H](C)N(c3cc(=O)n(C)c4ccc(C#N)nc34)C[C@H]2C)nc1 (single isomer, unassigned) [Example 372] | 270 | 270 | – | 550 | – | 22
8 | Cc1ccc(C(c2ccc(C)c(Cl)c2)N2C[C@H](C)N(c3cc(=O)n(C)c4ccc(C#N)nc34)C[C@H]2C)nc1 (single isomer, unassigned) [Example 373] | 740 | – | 180 | 6500 | 320 | –
9 | C[C@@H]1CN(c2cc(=O)n(C)c3ccc(C#N)nc23)[C@@H](C)CN1C(c1ccc(F)c(F)c1)c1ccccn1 (single isomer, unassigned) [Example 375] | 2700 | – | 49 | 270 | 330 | –
10 | C[C@@H]1CN(c2cc(=O)n(C)c3ccc(C#N)nc23)[C@@H](C)CN1C(c1ccc(F)c(F)c1)c1ccccn1 (single isomer, unassigned) [Example 376] | 1100 | 380 | – | 2900 | – | 28
11 | C[C@@H]1CN(c2cc(=O)n(C)c3ccc(C#N)nc23)[C@@H](C)CN1C(c1ccc(OC(F)(F)F)cc1)c1ccccn1 (single isomer, unassigned) [Example 378] | 2500 | – | 5.3 | 690 | 490 | –
12 | C[C@@H]1CN(c2cc(=O)n(C)c3ccc(C#N)nc23)[C@@H](C)CN1C(c1ccc(Cl)cc1)c1ccccn1 (single isomer, unassigned) [Example 381] | 500 | 180 | 3.9 | 360 | – | –
13 | Cc1nccc(C(c2ccc(F)cc2)N2C[C@H](C)N(c3cc(=O)n(C)c4ccc(C#N)nc34)C[C@H]2C)n1 (single isomer, unassigned) [Example 389] | 1100 | 280 | 25 | 2200 | – | –
14 | Cc1ccc(C(c2cncc(F)c2)N2C[C@H](C)N(c3cc(=O)n(C)c4ccc(C#N)nc34)C[C@H]2C)cc1 (single isomer, unassigned) [Example 391] | 2400 | 890 | 81 | 3100 | – | –
15 | C[C@@H]1CN(c2cc(=O)n(C)c3ccc(C#N)nc23)[C@@H](C)CN1C(c1ccc(F)cc1)c1ccncn1 (single isomer, unassigned) [Example 392] | 2100 | – | 66 | 180 | 330 | –
16 | [2H]C(C)(c1ccc(F)cc1)N1C[C@H](C)N(c2c(F)c(=O)n(C)c3ccc(C#N)nc23)C[C@H]1C (single isomer, unassigned) [Example 425] | 1500 | 270 | 110 | 58 | – | –

Row | SMILES | IC50 (human DGKζ) [nM] | EC50 (Human venous whole blood) [nM] | EC50 (naïve human CD8 T cells; Homo sapiens, T-cell, 20 h) [nM] | IC50 (human DGKα) [nM] | EC50 (Human venous whole blood; Homo sapiens, 24 h) [nM] | EC50 (naïve human CD8 T cells) [nM]
17 | CC(c1c(F)cc(F)cc1F)N1C[C@H](C)N(c2cc(=O)n(C)c3ccc(C#N)nc23)C[C@H]1C (single isomer, unassigned) [Example 432] | 500 | – | 15 | 510 | 67 | –
18 | CC(c1ccc(C(F)(F)F)cc1F)N1C[C@H](C)N(c2cc(=O)n(C)c3ccc(C#N)nc23)C[C@H]1C (single isomer, unassigned) [Example 434] | 700 | – | 5.7 | 1800 | 600 | –
19 | Cc1cccc(C(c2ccc(Cl)cc2)N2C[C@H](C)N(c3cc(=O)n(C)c4ccc(C#N)nc34)C[C@H]2C)n1 (single isomer, unassigned) [Example 443] | 110 | – | 94 | 1400 | 370 | –
20 | Cc1ccc(C(c2ccc(F)cn2)N2C[C@H](C)N(c3cc(=O)n(C)c4ccc(C#N)nc34)C[C@H]2C)cc1 (single isomer, unassigned) [Example 444] | 760 | – | 49 | 130 | 510 | –
21 | Cc1ccnc(C(c2ccc(F)cc2)N2C[C@H](C)N(c3cc(=O)n(C)c4ccc(C#N)nc34)C[C@H]2C)c1 (single isomer, unassigned) [Example 455] | 2400 | – | 97 | 1000 | 740 | –
22 | Cc1ccc(C(c2cc(C)ccn2)N2C[C@H](C)N(c3cc(=O)n(C)c4ccc(C#N)nc34)C[C@H]2C)cc1 (single isomer, unassigned) [Example 460] | 38 | 520 | 27 | 30 | – | –
23 | C[C@@H]1CN(c2cc(=O)n(C)c3ccc(C#N)nc23)[C@@H](C)CN1C(c1ccc(F)cc1)c1cccc(F)n1 (single isomer, unassigned) [Example 471] | 520 | – | 200 | 250 | 570 | –
24 | C[C@@H]1CN(c2cc(=O)n(C)c3ccc(C#N)nc23)[C@@H](C)CN1C(c1ccc(Cl)cc1)c1ccc2c(c1)OC(F)(F)O2 (single isomer, unassigned) [Example 657] | 1600 | – | 27 | 2400 | 660 | –
25 | C[C@@H]1CN(c2cc(=O)n(C)c3ccc(C#N)nc23)[C@@H](C)CN1C(c1ccc(F)cc1)c1ccc(C(F)F)cc1 (single isomer, unassigned) [Example 666] | 2000 | – | – | 720 | 920 | 5.6
26 | C[C@@H]1CN(c2cc(=O)n(C)c3ccc(C#N)nc23)[C@@H](C)CN1C(c1ccc(F)cc1)c1ccc(C(F)F)cc1 (single isomer, unassigned) [Example 667] | 2700 | 850 | – | 2800 | – | 27
27 | C[C@@H]1CN(c2cc(=O)n(C)c3ccc(C#N)nc23)[C@@H](C)CN1C(c1ccccn1)c1ccc(F)cc1F (single isomer, unassigned) [Example 682] | 1500 | 320 | 39 | 580 | – | –
28 | C[C@@H]1CN(c2cc(=O)n(C)c3ccc(C#N)nc23)[C@@H](C)CN1C(c1ccc(F)cn1)c1ccc(F)cc1F (single isomer, unassigned) [Example 685] | 1000 | 100 | 12 | 300 | – | –
29 | COc1ccc(C(c2cccc(F)c2)N2C[C@H](C)N(c3cc(=O)n(C)c4ccc(C#N)nc34)C[C@H]2C)nc1 (single isomer, unassigned) [Example 687] | 730 | 270 | 17 | 1600 | – | –
30 | C[C@@H]1CN(c2cc(=O)n(C)c3ccc(C#N)nc23)[C@@H](C)CN1C(c1ccc(F)cc1)c1ccon1 (single isomer, unassigned) [Example 707] | 1700 | 400 | 44 | 150 | – | –
31 | C[C@@H]1CN(c2cc(=O)n(C)c3ccc(C#N)nc23)[C@@H](C)CN1C(c1ccc(F)cc1)c1cocn1 (single isomer, unassigned) [Example 710] | 2600 | 550 | 22 | 120 | – | –
32 | C[C@@H]1CN(c2cc(=O)n(C)c3ccc(C#N)nc23)[C@@H](C)CN1C(c1ccc(F)cc1)c1cnsc1 (single isomer, unassigned) [Example 715] | 3900 | 680 | 42 | 360 | – | –
